For data set [1], the system named is Huh7 cells containing H/FL-Neo. Nature of the data set: Cytotoxicity by neutral red dye uptake in Huh7 cells containing H/FL-Neo. In kind it is cell-based. The note with it: Genotype 1a replicon. (In general: A replicon is a self-replicating genome or part of one, used to study replication in cells.)
Data set [2] deals with HCV replicon H/FL-Neo, genotype 1a full length. In words: HCV replicon assay in Huh7 cells containing H/FL-Neo. It counts as cell-based, Hepatitis C Virus. The procedure:
(§1) Antiviral activity of test compounds was assessed in a 3-day assay using the stably-expressing HCV replicon cell line, AVA5 (sub-genomic CON1, genotype 1b) (Blight et al., 2000) maintained as sub-confluent cultures on 96-well plates as previously described (Okuse et al., 2005). Antiviral activity was determined by blot hybridization analysis of intracellular HCV RNA (normalized to the level of cellular B-actin RNA in each culture sample) and cytotoxicity was assessed by neutral red dye uptake after 3 days of treatment. Additional studies were performed using Huh7 cells containing another HCV replicon, H/FL-Neo, a genotype 1a full length construct (Blight et al., 2003). For studies involving human serum, standard culture medium (which contains 10% fetal bovine serum) and assay conditions were maintained.
(§2) EC50, EC90 and CC50 values (±standard deviations [S.D.]) were calculated by linear regression analysis using data combined from all treated cultures (Korba and Gerin, 1992; Okuse et al., 2005). […] Selectivity index (S.I.) was calculated as CC50/EC90 for HBV assays and CC50/EC50 for HCV assays. EC90 values were used for calculation of the S.I. in HBV assays since at least a […] depression of HBV DNA levels is typically required to achieve statistical significance in this assay system (Korba and Gerin, 1992). For combination treatments, EC50, EC90, CC50 and S.I. are presented for the first compound listed. The molar ratio of the compounds in each combination is also indicated.

For data set [3], the system named is HCV replicon, sub-genomic CON1, genotype 1b. Nature of the data set: 3-day HCV replicon assay in AVA5 cells (intracellular HCV RNA, blot hybridization). It counts as cell-based, Hepatitis C Virus. The procedure: as §1, §2
In a further data set the test system is 2.2.15 cells. In words: Cytotoxicity by neutral red dye uptake in 2.2.15 cells. The note with it: confluent 2.2.15 cultures, nine daily doses, neutral red uptake. The procedure:
(§3) HBV antiviral assays were conducted as previous described (Korba and Gerin, 1992).
as §2

The next data set concerns HBV. Nature of the data set: HBV antiviral assay in confluent 2.2.15 cell cultures (HBV DNA, quantitative blot hybridization). In kind it is cell-based, Hepatitis B Virus.
For a further data set, the system named is AVA5 cells. In words: Cytotoxicity by neutral red dye uptake in AVA5 cells. In kind it is cell-based. The note with it: Genotype 1b replicon, 3 days.
In a further data set the test system is HCV replicon genotype 1B. Nature of the data set: Secondary HCV replicon cell assay, genotype 1B. It counts as cell-based, Hepatitis C Virus. The source says: (§4) Table 10 presents data from the secondary HCV replicon cell assays using genotypes 1B and 1A.
Data set [4] deals with HCV replicon cells, genotype 1A. Nature of the data set: Secondary HCV replicon cell assay, genotype 1A, cytotoxicity. In kind it is cell-based.
Text: as §4

The subject of another data set is HCV replicon genotype 1A. Nature of the data set: Secondary HCV replicon cell assay, genotype 1A. In kind it is cell-based, Hepatitis C Virus.
Text: as §4

Data set [5] has as its system HCV replicon cells, genotype 1B. In words: Secondary HCV replicon cell assay, genotype 1B, cytotoxicity. In kind it is cell-based.
Text: as §4

The test system of the next data set is HCV replicon cells. Nature of the data set: Primary HCV replicon cell assay, cytotoxicity. The settings on record: primary assay. The procedure: as §1, §2
The next data set concerns HCV replicon. Nature of the data set: Primary HCV replicon cell assay. In kind it is cell-based, Hepatitis C Virus. The procedure: as §1, §2
Data set [6] in a line: Cytotoxicity by neutral red dye uptake in Huh7 cells containing H/FL-Neo. It counts as cell-based. The note with it: human; Genotype 1a replicon.
The conditions of data set [7]: cited from earlier work.
The test system of the next data set is cytochrome P450 enzymes. The settings on record: cited from earlier work.
Data set [8] is described as follows: Cytotoxicity in HCV replicon cells in the presence of human serum. The procedure: as §1, §2
(§5) To evaluate the effect of human serum on the anti-HCV potency and cytotoxicity of TIZ, human serum was added to the culture medium at various concentrations (Table 6). […] In the below tables, RM4863 is the same as compound 6 of Table 7.

Another data set has as its system HCV replication. In words: HCV replicon assay in the presence of human serum. It counts as cell-based. The settings on record: Hepatitis C virus. The procedure: as §1, §2, §5
The nature of data set [9]: Cytotoxicity by neutral red dye uptake in 2.2.15 cells. The note with it: human. The procedure:
as §3, §2

Data set [10] can be described thus: Cytotoxicity by neutral red dye uptake in AVA5 cells. It counts as cell-based. The note with it: human, AVA5 cells (HCV replicon, sub-genomic CON1), Genotype 1b replicon.
Setting [11] is: Genotype 1b replicon, 3 days, first compound listed for combinations.
Setting [12] is: Hepatitis C virus, Huh-7, Genotype 1a replicon.

“And” between values parts separate entries of the source, which are not always exact repeats. Identical values can stand only once. Like-named read-outs stand apart in the source and are kept apart here.

In general, CC50 refers to the concentration at which the toxic effect on the cells reaches its halfway point. By EC50 is commonly meant the concentration at which the effect is half-maximal. The EC90 is the concentration needed for an effect of 90%.

Method for HBV: EC50, EC90 and CC50 values (±standard deviations [S.D.]) were calculated by linear regression analysis using data combined from all treated cultures (Korba and Gerin, 1992; Okuse et al., 2005). […] Selectivity index (S.I.) was calculated as CC50/EC90 for HBV assays and CC50/EC50 for HCV assays. EC90 values were used for calculation of the S.I. in HBV assays since at least a 3-fold depression of HBV DNA levels is typically required to achieve statistical significance in this assay system (Korba and Gerin, 1992).

On to `O=C(Nc1ncc(Br)s1)c1ccccc1O` [RM4832], for which the CC50 was 88 ± 2.1 µM in [1], over 100 µM in the data set with 2.2.15 cells and 98 ± 3.2 µM in the data set with AVA5 cells. The “antiviral activity against full length genotype 1a replicon compared with AVA5 cells (genotype 1b)” value in data set [2] was “equivalent”. The concentration giving a half-maximal response (EC50) came to 2.8 ± 0.3 µM in data set [2] (Genotype 1a replicon); 4.9 ± 0.5 µM in data set [3] (setting [11]); 1.2 ± 0.1 µM in the data set on HBV (2.2.15 cells, nine daily doses, read-out: Extracellular virion DNA EC50); 2.9 ± 0.3 µM with HBV (2.2.15 cells, nine daily doses, read-out: Intracellular HBV RI EC50). For the same compound, the EC90 in data set [2] (Genotype 1a replicon) stood at 9.4 ± 1.1 µM; in [3] (setting [11]), 20 ± 1.9 µM; in the data set on HBV (2.2.15 cells, nine daily doses, read-out: Extracellular virion DNA EC90) it was 4 ± 0.3 µM; in the data set on HBV (2.2.15 cells, nine daily doses, read-out: Intracellular HBV RI EC90), 8.7 ± 1 µM. In addition, in data set [3] (among the other thiazolides), the “activity against HCV” value was “exhibited activity”.
On to `CS(=O)(=O)c1cnc(NC(=O)c2ccccc2O)s1` [Compound 75], for which the EC90 with HCV replicon genotype 1B came to 7.9 µM; in the data set on HCV replicon genotype 1A it was 8.5 µM; with HCV replicon, 8.1 µM. Further, the CC50 in data set [4] was determined as 56 µM; in [5], 54 µM; with HCV replicon cells it was 53 µM. Further, the values for the EC50 in the data set on HCV replicon genotype 1A and in the data set on HCV replicon were 2.8 µM and 2.1 µM, respectively.
As for `O=C(Nc1ncc([N+](=O)[O-])s1)c1ccccc1O` [TIZ, tizoxanide], the CC50 at 3 days was 14 ± 0.2 µM in data set [6]; 28 ± 0.9 µM in data set [8] (CC50, human serum 0 %); 65 ± 1.4 µM in data set [8] (CC50, human serum 2.5 %); 97 ± 3.9 µM in data set [8] (CC50, human serum 5 %); over 100 µM in data set [8] (CC50, human serum 10 %); over 100 µM in data set [8] (CC50, human serum 15 %). Besides, the CC50 at 3 days in data set [8] (CC50, human serum 20 %) is over 100 µM; in data set [8] (CC50, human serum 30 %), over 100 µM; in data set [10] it was 15 ± 1.2 µM. Further, the “elimination half-life from plasma” value in data set [7] (in vivo) is on record as “approximately 1.5 hours”. Besides, the Maximum serum concentrations result in [7] (one 500 mg NTZ tablet (Alinia) orally with food) was “approximately 10 μg/mL and ~37 μM”. For the same compound, the “part of an oral dose that passes through the intestinal tract and is excreted in feces as TIZ” value in data set [7] (oral dose of NTZ) was “Approximately two-thirds”. The “inhibition of cytochrome P450 enzymes” value in the data set with cytochrome P450 enzymes is “does not inhibit”. Also, the “antiviral activity against full length genotype 1a replicon compared with AVA5 cells (genotype 1b)” value in [2] is “equivalent”. Besides, the “Selectivity Index” value is listed as 56 in [2] (Genotype 1a replicon, CC50/EC50) and 100 in [3] (Genotype 1b replicon, CC50/EC50). In addition, the EC50 in data set [2] (setting [12]) is 0.25 ± 0.03 µM; in the data set with HCV replication (human serum 0 %), 0.25 ± 0.01 µM; in the data set with HCV replication (human serum 2.5 %), 0.48 ± 0.02 µM; in the data set on HCV replication (human serum 5 %), 0.64 ± 0.05 µM; with HCV replication (human serum 10 %), 1.1 ± 0.1 µM; in the data set with HCV replication (human serum 15 %), 2.7 ± 0.3 µM. The EC50 amounted to 9.4 ± 0.8 µM with HCV replication (human serum 20 %); 9.3 ± 0.9 µM in the data set on HCV replication (human serum 30 %); 0.46 ± 0.05 µM with HBV (Hepatitis B virus, read-out: Intracellular HBV RI EC50); 0.15 ± 0.02 µM in the data set with HBV (Hepatitis B virus, 2.2.15 cells, nine daily doses, read-out: Extracellular virion DNA EC50). The EC90 in [2] (setting [12]) was found to be 1 ± 0.1 µM; with HCV replication (human serum 0 %), 0.98 ± 0.04 µM; in the data set on HCV replication (human serum 2.5 %), 1.1 ± 0.1 µM; with HCV replication (human serum 5 %), 2.3 ± 0.1 µM; with HCV replication (human serum 10 %), 3 ± 0.2 µM; in the data set on HCV replication (human serum 15 %) it was 15 ± 2 µM. The EC90 in the data set on HCV replication (human serum 20 %) was found to be 27 ± 2.2 µM; in the data set on HCV replication (human serum 30 %), 32 ± 3 µM; with HBV (Hepatitis B virus, 2.2.15 cells, nine daily doses, read-out: Extracellular virion DNA EC90), 0.58 ± 0.06 µM; with HBV (Hepatitis B virus, 2.2.15 cells, nine daily doses, read-out: Intracellular HBV RI EC90), 1.2 ± 0.2 µM. Moreover, in data set [9], the CC50 at 9 days was over 100 µM. The “Selectivity Index Virion” value with HBV (CC50/EC90, extracellular virion DNA) is over 172. Besides, the “Selectivity Index RI” value in the data set with HBV (CC50/EC90, intracellular HBV RI) was over 83.

Source of the values: patent US8895752B2, “Alkylsulfonyl-substituted thiazolide compounds” (priority 2007, dated 2014).
